{"source": "patent US9295627B2", "about": "(priority 2011, dated 2016)", "key": {"Acute toxicity test": {"assay": "Acute toxicity test", "conditions": "female, BALB/c, mouse, in vivo, ip", "method": "Two grams of any one of the adenosine N1-oxide obtained in Experiment 1, the 3′-glucosyladesonine N1-oxide and 5′-glucosyladenosine N1-oxide obtained in Experiment 2, and the 5′-adenosine diphosphate N1-oxide and 5′-adenosine triphosphate N1-oxide obtained in Experiment 3 was dissolved in 100 mL of D-PBS (Dulbecco's Phosphate-Buffered Salines). The resulting solution was intraperitoneally administered to 10 BALB/c female mice, six-week-old, with an average body mass of 20 g each, commercialized by Charles River Laboratories Japan, Inc., Kanagawa, Japan, at a dose of one milliliter/head, followed by observation for 24 hours. As a control, only D-PBS was intraperitoneally administered to 10 BALB/c female mice, six-week-old, with an average body mass of 20 g each, commercialized by Charles River Laboratories Japan, Inc., Kanagawa, Japan, at a dose of one milliliter/head, followed by observation for 24 hours. Thereafter, each mouse was collected her blood and urine for measuring clinical test items as indexes for renal and liver functions. […] As a result, adenosine N1-oxide, 3′-glucosyladenosine N1-oxide, 5‘-glucosyladenosine N1-oxide, 5’-adenosinme diphosphate N1-oxide, and 5′-adenosine triphosphate N1-oxide have an LD50 of at least 1,000 mg/kg, respectively. Thus, these compounds are judged as substances safely administrable to humans."}, "[1]": {"assay": "Solubility in solvents such as water", "type": "physicochemical"}, "[2]": {"system": "medium periodontal diseases", "assay": "Volunteer test 2: tooth mobility after mouthwash use, concentration series", "type": "in vivo, human", "conditions": "aqueous mouthwash, % by mass, Experiment 6", "from_the_text": "• A: A distinct improvement in tooth mobility is observed on a tooth mobility test (or periodontometry) with a pincette compared with that before initiating the test; • B: Somewhat improvement in tooth mobility is observed on a tooth mobility test with a pincette compared with that before initiating the test; and • C: No improvement or rather aggravation is observed on a tooth mobility test with a pincette compared with that before initiating the test.\nFor adenosine N1-oxide, which had marked the highest improvement effect on periodontal diseases in Experiment 5, it was examined in more detail for its improvement action on periodontal diseases: Eight females, 20- to 30-year-old, as subjects, who were healthy except for suffering from medium periodontal diseases (with a periodontal pocket depth of 3 mm or deeper but less than 6 mm), were subjected to a volunteer test similarly as in Experiment 5 except for using six types of aqueous solutions containing 0.001 to 7.5% adenosine N1-oxide and setting a test period of seven months. […]\nThe subjects were allowed to brush their teeth with the same toothpaste as used in Experiment 5. […] Before initiating the test, a dental hygienist under a doctor's guidance evaluated the conditions of gingivitis for each subject […] based on the same criteria as shown in Experiment 5."}, "[3]": {"conditions": "1000 mg/kg, intraperitoneal, 2 g in 100 mL D-PBS, one milliliter/head, mice of 20 g, observation for 24 hours, read-out: LD50"}}, "note": "Where two headings read alike, the source gives them in different places.", "data": [{"smiles": "Nc1c2ncn([C@@H]3O[C@H](CO)[C@@H](O[C@H]4O[C@H](CO)[C@@H](O)[C@H](O)[C@H]4O)[C@H]3O)c2nc[n+]1[O-]", "values": [{"measurement": "LD50 at 24 h", "setting": "Acute toxicity test; [3]", "result": "≥ 1000", "unit": "mg/kg"}, {"measurement": "solubility in solvents such as water compared to adenosine N1-oxide", "setting": "[1]", "result": "higher solubility"}]}, {"smiles": "Nc1c2ncn([C@@H]3O[C@H](CO[C@H]4O[C@H](CO)[C@@H](O)[C@H](O)[C@H]4O)[C@@H](O)[C@H]3O)c2nc[n+]1[O-]", "values": [{"measurement": "LD50 at 24 h", "setting": "Acute toxicity test; [3]", "result": "≥ 1000", "unit": "mg/kg"}, {"measurement": "solubility in solvents such as water compared to adenosine N1-oxide", "setting": "[1]", "result": "higher solubility"}]}, {"smiles": "Nc1c2ncn(C3OC(COP(=O)(O)OP(=O)(O)O)C(O)C3O)c2nc[n+]1[O-]", "note": "(centres unmarked) [5′-adenosine diphosphate N1-oxide]", "values": [{"measurement": "solubility in solvents such as water compared to adenosine N1-oxide", "setting": "[1]", "result": "higher solubility"}]}, {"smiles": "Nc1c2ncn([C@@H]3O[C@H](COP(=O)(O)OP(=O)(O)OP(=O)(O)O)[C@@H](O)[C@H]3O)c2nc[n+]1[O-]", "note": "[5′-adenosine triphosphate N1-oxide]", "values": [{"measurement": "solubility in solvents such as water compared to adenosine N1-oxide", "setting": "[1]", "result": "higher solubility"}]}, {"smiles": "Nc1c2ncn([C@@H]3O[C@H](CO)[C@@H](O)[C@H]3O)c2nc[n+]1[O-]", "note": "[adenosine N1-oxide]", "values": [{"measurement": "LD50 at 24 h", "setting": "Acute toxicity test", "result": "≥ 1000", "unit": "mg/kg"}, {"measurement": "concentrations at which periodontal diseases are distinctly, effectively prevented and/or treated", "setting": "[2]", "result": "≥ 0.5", "unit": "%"}]}]}
